# Tests used:
# [1] = tested on: rat cardiac myocytes; experiment: Action potential prolongation in rat cardiac myocytes; format: cell-based; details: 1 μM, 2 min application
# Description: (§1) 4. Electrophysiological Studies
# (§2) Electrophysiological recordings of native channels in cells and cell lines, cloned and expressed channels in cells (e.g., CHO cells) as well as isolated cardiac myocytes were performed using the whole cell configuration of the patch clamp technique (Hamill et al., Pflugers Archiv 391:85, 1981). Cell lines were prepared as described above (cloning, etc.). Rat and human cardiac myocytes were isolated using the methods described in Castle and Slawsky, J. Pharmacol. Exp. Ther. 264:1450, 1993 and Wang et al., Circ. Res., 73:1061, 1993, respectively. Cells were plated on glass coverslips at a density of 2×10^4 cells/coverslip and used within 24-48 hours for cultured cell lines and within 6 hours for isolated cardiac myocytes. The coverslips were placed in a small chamber (volume ~200 μl) on the mechanical stage of an inverted microscope and perfused (2 ml/min) with extracellular recording solution. Drug application was achieved via a series of narrow-bore glass capillary tubes (inner diameter ~100 μm) positioned approximately 200 μm from the cell. Application of voltage-clamp pulses, data acquisition and the analysis were controlled by a 75 MHz Pentium computer using pCLAMP 6.0 software (Axon Instruments Inc. Foster City, Calif.).
# (§3) A functional consequence of potassium channel inhibition in the heart is a prolongation of the action potential duration. […]
# [2] = target: T1, human Kv1.3 potassium channel (Homo sapiens, UniProt P22001); experiment: Whole cell patch clamp, inhibition of Kv1.3 current in CHO cells; format: cell-based; details: 10 μM, 5 min preincubation; steps -80 mV to +60 mV every 60 seconds
# Description: as §1
# as §2, with “Calif.). […]” for “Calif.).”
# [3] = tested on: human T-lymphocytes; experiment: Toxicity to human T-lymphocytes (cell viability); format: cell-based; details: 10 μM, 90 hours of exposure
# Description: (§4) A T-lymphocyte proliferation assay was performed using human peripheral T-lymphocytes isolated by centrifugation on lymphocyte separation medium (Organon Teknika) followed by adherence of non-T cells on nylon wool. […] 100 μl of cells/well was dispensed into a 96-well plate. Cells were stimulated with phytohemoagglutinin (1.25 or 2.5 μg/ml final concentration) in the presence or absence of various antagonists for 3 days. On the fourth day, cells were pulsed with [^3 ]thymidine for an additional 18 hours and harvested on glass fiber filtermats with extensive washing. Mats were counted in a Wallac Microbeta liquid scintillation counter using melt-on scintillant. Additional wells were counted at the end of the 18 hour period to determine if the drug treatments caused cellular toxicity.
# [4] = tested on: human atrial myocytes; experiment: Action potential prolongation in isolated human atrial myocytes; format: cell-based
# Description: as §1, §2, §3
# [5] = target: T2, human Kv1.5 potassium channel (Homo sapiens, UniProt P22460); experiment: 86Rubidium efflux from CHO cell monolayers expressing Kv1.5; format: cell-based; details: 10 μM compound 4; 15 minute period; n=4
# T2 construct: Error-free parts of these clones were then ligated together to form a complete cDNA construct; expressed in transfected cells
# Description: (§5) 2. ^86 Rubidium Efflux From Cell Monolayers
# CHO cells stably transfected with either human Kv1.5 or Kv1.3 as well as nontransfected cells were grown to approximately 90% confluence in 24 well tissue culture plates. Tissue culture growth medium was then removed and replaced with 1 ml of Iscoves modified DMEM containing ^86 Rb at a concentration of 1 μCi/ml and incubated for three hours at 37° C. to permit intracellular uptake of the isotope. At the end of the incubation period, the ^86 Rb solution was aspirated and the cells washed three times with Earls Balanced Salt Solution (EBSS). The cells were then incubated for 15 minutes at room temperature in 0.6 ml/well of EBSS or EBSS containing the compounds to be tested. At the end of this period, a 0.3 ml sample was taken for analysis to determine basal efflux of ^86 Rb. To each well was then added 0.3 ml of a modified high KCl EBSS, containing 125 mM KCl (NaCl replaced by KCl; final KCl concentration in each well was 65 nM) and the compounds to be tested. […] Samples were counted in a Wallac Microbeta Liquid Scintillation counter by Cerenkov emission. Efflux was expressed as a percentage of the initial cell content of ^86 Rb.
# (§6) Values are means ±s.e. (n=4) of the amount of ^86 Rb released in a 15 minute period and are expressed as a percentage of the initial cell content.
# [6] = tested on: human T lymphocytes; experiment: T-lymphocyte proliferation assay (PHA-stimulated 3H-thymidine incorporation); format: cell-based; details: compared to PHA-only controls; 10 μM compound 4, 1 nM margatoxin, 50 nM charybdotoxin; PHA 1.25 or 2.5 μg/ml
# Description: Lymphocyte Proliferation Studies
# as §4
# [7] = target: T2, human Kv1.5 potassium channel; experiment: Whole cell patch clamp, inhibition of Kv1.5 current in CHO cells; format: cell-based; details: for IC50: Kv1.5, whole cell patch clamp, approx. values, read-out: 50% Channel Inhibition (IC50)
# Description: as §1, §2
# 500 ms voltage clamp steps from -80 mV to +60 mV were applied to individual cells every 20 seconds for Kv1.5 and every 60 seconds for Kv1.3.
# [8] = tested on: IKur in human atrial myocytes; experiment: Inhibition of IKur currents in isolated human atrial myocytes; format: cell-based
# Description: as §1, §2
# [9] = target: T1, human Kv1.3 potassium channel; experiment: 86Rubidium efflux from CHO cell monolayers expressing Kv1.3; format: cell-based; details: for inhibition of 60 mM KCl evoked increase in 86Rb efflux rate (Kv1.3): preexposure to 5 nM margatoxin or 10 μM compound 4, 15 minute period, n=4
# Description: Stable clones were tested for voltage-gated potassium channel expression using a ^86 rubidium (^86 Rb) ion flux assay (see below for methodology).
# as §5
# CHO cells stably transfected with either human Kv1.5 or Kv1.3 as well as nontransfected cells were grown to approximately 90% confluence in 24 well tissue culture plates. Tissue culture growth medium was then removed and replaced with 1 ml of Iscoves modified DMEM containing ^86 Rb at a concentration of 1 μCi/ml and incubated for three hours at 37° C. to permit intracellular uptake of the isotope. At the end of the incubation period, the ^86 Rb solution was aspirated and the cells washed three times with Earls Balanced Salt Solution (EBSS). The cells were then incubated for 15 minutes at room temperature in 0.6 ml/well of EBSS or EBSS containing the compounds to be tested. At the end of this period, a 0.3 ml sample was taken for analysis to determine basal efflux of ^86 Rb. To each well was then added 0.3 ml of a modified high KCl EBSS, containing 125 mM KCl (NaCl replaced by KCl; final KCl concentration in each well was 65 nM) and the compounds to be tested. The high KCl concentration was utilized to depolarize the cells to membrane potentials that would activate Kv1.3 and Kv1.5 channels. After a 15 minute incubation, another 0.3 ml sample was taken for analysis. Finally 0.3 ml of 0.2% sodium dodecyl sulfate in EBSS was added to each well to lyse the cells. Of this lysate 0.3 ml was taken for analysis to determine final cell content of ^86 Rb. Samples were counted in a Wallac Microbeta Liquid Scintillation counter by Cerenkov emission. Efflux was expressed as a percentage of the initial cell content of ^86 Rb.
# as §6
# [10] = target: T1, human Kv1.3 potassium channel; experiment: Fluorescence measurement of cell membrane potential (DiBac4(3)) in CHO cells expressing Kv1.3; format: cell-based; details: 10 μM; compared with margatoxin; CHO cells expressing human Kv1.3
# Description: Fluorescence Measurement of Cell Membrane Potential
# CHO cells stably transfected with genes encoding human voltage gated potassium channels were grown to 80-90% confluency in 96 well tissue culture plates. On the experimental day, they were repeatedly contacted with a modified EBSS (116 mM NaCl, 5.4 mM KCl, 1.8 mM CaCl2, 0.8 mM MgCl2, 20 mM HEPES, 5 nM glucose; pH 7.4, 300 mOsm) plus 5 μM of the voltage-sensitive oxonol dye, bis-(1,3-dibutylbarbituric acid)trimethine oxonol (DiBac4 (3)). Dibac4 (3) binds to intracellular proteins in a membrane potential-dependent process, changing the effective concentration of fluorescing molecules. […] The cells in each well were then incubated in EBSS+5 μM DiBac4 (3) at 37° C. for 30 minutes. The 96 well plate was then placed in a 35° C. temperature controlled chamber within a laser based fluorescence imaging plate reader (NovelTech Inc.). Data were collected every 60 seconds for periods ranging from 20 to 40 min. To permit comparative quantification of the magnitude of drug induced changes in the fluorescence signal, changes were compared to the addition of EBSS+5 μM DiBac4 (3) without drug and EBSS+5 μM DiBac4 (3)+30 mM KCl without drug, and expressed as a percentage of the increase in fluorescence induced by exposure of the cells to 30 mM KCl. […]
# [11] = tested on: nontransfected CHO cells; experiment: Fluorescence measurement of cell membrane potential (DiBac4(3)) in non-transfected CHO cells; format: cell-based, Chinese hamster; details: 10 μM; CHO-WT
# T1 sequence (P22001 whole entry): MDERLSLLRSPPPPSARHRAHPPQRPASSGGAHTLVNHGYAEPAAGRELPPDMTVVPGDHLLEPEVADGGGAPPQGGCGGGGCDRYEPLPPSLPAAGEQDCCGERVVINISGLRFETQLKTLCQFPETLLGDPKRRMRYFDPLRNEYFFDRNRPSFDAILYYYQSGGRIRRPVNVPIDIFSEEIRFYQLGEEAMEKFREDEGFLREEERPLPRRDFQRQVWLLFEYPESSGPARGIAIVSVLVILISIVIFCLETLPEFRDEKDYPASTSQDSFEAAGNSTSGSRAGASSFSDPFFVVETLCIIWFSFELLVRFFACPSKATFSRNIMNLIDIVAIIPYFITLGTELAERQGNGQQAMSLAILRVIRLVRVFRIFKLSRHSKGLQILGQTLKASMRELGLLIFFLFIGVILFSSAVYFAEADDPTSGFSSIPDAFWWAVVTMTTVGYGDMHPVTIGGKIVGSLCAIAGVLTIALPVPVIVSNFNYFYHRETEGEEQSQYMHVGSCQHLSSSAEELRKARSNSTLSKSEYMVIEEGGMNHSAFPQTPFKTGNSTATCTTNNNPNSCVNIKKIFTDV
# T2 sequence (P22460 whole entry): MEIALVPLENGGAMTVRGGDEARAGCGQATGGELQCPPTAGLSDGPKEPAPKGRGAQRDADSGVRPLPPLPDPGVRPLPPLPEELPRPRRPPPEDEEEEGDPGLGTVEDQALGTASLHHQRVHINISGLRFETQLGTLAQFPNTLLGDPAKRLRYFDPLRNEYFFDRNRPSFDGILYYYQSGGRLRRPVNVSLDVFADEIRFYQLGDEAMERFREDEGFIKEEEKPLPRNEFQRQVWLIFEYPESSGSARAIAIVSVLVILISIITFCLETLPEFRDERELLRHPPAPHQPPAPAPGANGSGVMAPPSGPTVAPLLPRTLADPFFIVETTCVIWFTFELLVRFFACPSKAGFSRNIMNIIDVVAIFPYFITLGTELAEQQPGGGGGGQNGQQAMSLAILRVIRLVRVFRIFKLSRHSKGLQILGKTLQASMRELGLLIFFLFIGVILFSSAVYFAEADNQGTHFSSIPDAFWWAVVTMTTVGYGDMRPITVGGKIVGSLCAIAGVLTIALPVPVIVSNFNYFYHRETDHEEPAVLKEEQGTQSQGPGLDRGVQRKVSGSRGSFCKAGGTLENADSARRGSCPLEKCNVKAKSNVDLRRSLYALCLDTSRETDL
compound,measurement,setting,value
"CCc1ccc(S(=O)(=O)N[C@H]2c3cc(NC(=O)c4cccc(OC)c4)ccc3C[C@@H]2O)cc1 (relative stereo) [Compound 4, 1-(p-ethylphenyl)sulfimide-2-hydroxy-6-(m-methoxy)benzamido-indane]",prolongation of the action potential (rat),[1],prolongs the action potential
same,inhibition of potassium currents (Kv1.3),[2],inhibition of potassium currents
same,cell viability / toxicity to human T-lymphocytes,[3],no decrease in cell viability
same,activation at 1 µM,[4],> 50%
same,inhibition of KCl evoked increase in 86Rb efflux rate (Kv1.5),[5],completely inhibited
same,inhibition of lymphocyte proliferation,[6],inhibited lymphocyte proliferation to a similar extent
same,inhibition of potassium currents (Kv1.5),"[7]; 10 μM, 5 min preincubation, steps -80 mV to +60 mV every 20 seconds",inhibition of potassium currents
same,IC50,[7],~100 nM
same,inhibition at 1 µM,[8],> 50%
same,inhibition of 60 mM KCl evoked increase in 86Rb efflux rate (Kv1.3),[9],completely abolished
same,cell membrane depolarization (Kv1.3),[10],produced a depolarization similar in magnitude to that induced by the Kv1.3-specific blocking toxin margatoxin
same,compound-induced depolarization (nontransfected cells),[11],absent
CCc1ccc(S(=O)(=O)NC2c3cc(NC(=O)c4cccc(C)c4)ccc3CC2O)cc1 (stereo not drawn) [Compound 2],IC50,[7],~1000 nM
COc1ccc(S(=O)(=O)NC2c3cc(NC(=O)c4cccc(OC)c4)ccc3CC2O)cc1 (stereo not drawn) [Compound 10],IC50,[7],> 1000 nM
CCc1ccc(S(=O)(=O)NC2c3cc(NC(=O)CCC4CCCC4)ccc3CC2O)cc1 (stereo not drawn) [Compound 11],IC50,[7],~1000 nM
COc1cccc(C(=O)Nc2ccc3c(c2)C(NS(=O)(=O)c2ccccc2)C(O)C3)c1 (stereo not drawn) [Compound 12],IC50,[7],> 1000 nM
CCc1ccc(S(=O)(=O)NC2c3cc(NC(=O)C4CC5CCC4CC5)ccc3CC2O)cc1 (stereo not drawn) [Compound 13],IC50,[7],~1000 nM
CCCCCOc1ccc(C(=O)Nc2ccc3c(c2)C(NS(=O)(=O)c2ccc(CC)cc2)C(O)C3)cc1 (stereo not drawn) [Compound 15],IC50,[7],~1000 nM
COc1cccc(C(=O)Nc2ccc3c(c2)C(NS(=O)(=O)c2ccc4ccccc4c2)C(O)C3)c1 (stereo not drawn) [Compound 16],IC50,[7],~1000 nM
CCc1ccc(S(=O)(=O)NC2c3cc(NC(=O)c4ccccc4F)ccc3CC2O)cc1 (stereo not drawn) [Compound 17],IC50,[7],> 1000 nM
charybdotoxin,inhibition of lymphocyte proliferation,[6],inhibited lymphocyte proliferation to a similar extent
"margatoxin (TIINVKCTSPKQCLPPCKAQFGQSAGAKCMNGKCKCYPH; UniProt P40755 1-39, looked up)",inhibition of lymphocyte proliferation,[6],inhibited lymphocyte proliferation to a similar extent
same,inhibition of KCl-stimulated 86Rb efflux,"[9]; margatoxin present, four positive Kv1.3 clones",approximately 95%
same,inhibition of 60 mM KCl evoked increase in 86Rb efflux rate (Kv1.3),[9],completely abolished
